Laboratory results reported in the supplement of paper PMC11061612.

How the values were obtained:
Assay in all cases: combination Emax (second highest fraction inhibited in the dose matrix, 72 h); higher = more inhibition; extreme values may be limits of the assay
[1] = system: TT2609-C02 (Thyroid Gland Carcinoma)
Summary of the method: (§1)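 Cell lines in DMEM/F12 or RPMI with 10% FBS were plated in 1536-well plates, held 24 hours at 37°C, 5% CO2, then given two-drug dose matrices for 72 hours (DMSO typically 0.2%). Viability was read by CellTiter-Glo 2.0 luminescence and scaled as inhibition from 0 (vehicle wells) to 1 (blank wells). Combination Emax is the second-highest inhibition in the matrix; Bliss excess is observed combination effect minus expected EA + EB − EA·EB, EA and EB being single-agent effects.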

[2] = system: ONS-76 (Other Solid Carcinomas)
Summary of the method: as §1

[3] = system: NCI-H64 (Small Cell Lung Carcinoma)
Summary of the method: as §1

FU97 (Gastric Carcinoma) = system: FU97 (Gastric Carcinoma)
Summary of the method: as §1

[4] = system: SK-MES-1 (Squamous Cell Lung Carcinoma)
Summary of the method: as §1

[5] = system: KARPAS-422 (B-Cell Non-Hodgkin's Lymphoma)
Summary of the method: as §1

PA-1 (Ovarian Carcinoma) = system: PA-1 (Ovarian Carcinoma)
Summary of the method: as §1

[6] = system: OS-RC-2 (Kidney Carcinoma)
Summary of the method: as §1

[7] = system: A549 (Lung Adenocarcinoma)
Summary of the method: as §1

[8] = system: CAPAN-2 (Pancreatic Carcinoma)
Summary of the method: as §1

LN-405 (Glioblastoma) = system: LN-405 (Glioblastoma)
Summary of the method: as §1

[9] = system: ECC10 (Gastric Carcinoma)
Summary of the method: as §1

[10] = system: COLO-320-HSR (Colorectal Carcinoma)
Summary of the method: as §1

[11] = system: BICR22 (Oral Cavity Carcinoma)
Summary of the method: as §1

[12] = system: NCI-H2066 (Squamous Cell Lung Carcinoma)
Summary of the method: as §1

[13] = system: HCC1954 (Breast Carcinoma)
Summary of the method: as §1

CAS-1 (Glioblastoma) = system: CAS-1 (Glioblastoma)
Summary of the method: as §1

[14] = system: NCI-H1650 (Lung Adenocarcinoma)
Summary of the method: as §1

[15] = system: COR-L311 (Small Cell Lung Carcinoma)
Summary of the method: as §1

U-2-OS (Osteosarcoma) = system: U-2-OS (Osteosarcoma)
Summary of the method: as §1

SMILES | combination Emax [1] | combination Emax [2] | combination Emax [3] | combination Emax (FU97 (Gastric Carcinoma)) | combination Emax [4] | combination Emax [5] | combination Emax (PA-1 (Ovarian Carcinoma)) | combination Emax [6] | combination Emax [7] | combination Emax [8] | combination Emax (LN-405 (Glioblastoma)) | combination Emax [9] | combination Emax [10] | combination Emax [11] | combination Emax [12] | combination Emax [13] | combination Emax (CAS-1 (Glioblastoma)) | combination Emax [14] | combination Emax [15] | combination Emax (U-2-OS (Osteosarcoma))
CCN(CCO)CCCOc1ccc2c(Nc3cc(CC(=O)Nc4cccc(F)c4)[nH]n3)ncnc2c1 [AZD2811] + C=CCn1c(=O)c2cnc(Nc3ccc(N4CCN(C)CC4)cc3)nc2n1-c1cccc(C(C)(C)O)n1 [AZD1775] (first compound max 1 µM, partner max 1 µM) | 0.361 | 0.607 | 0.813 | 0.219 | 0.537 | 0.569 | 0.767 | 0.305 | 0.599 | 0.299 | 0.199 | 0.898 | 0.631 | 0.468 | 0.203 | 0.161 | 0.496 | 0.346 | 0.592 | 0.628
CCN(CCO)CCCOc1ccc2c(Nc3cc(CC(=O)Nc4cccc(F)c4)[nH]n3)ncnc2c1 [AZD2811] + C[C@@H]1COCCN1C2=NC(=NC(=C2)C3(CC3)[S@](=N)(=O)C)C4=C5C=CNC5=NC=C4 [AZD6738] (first compound max 1 µM, 7x7, partner max 10 µM) | 0.331 | 0.908 | 0.781 | 0.373 | 0.668 | 0.565 | 0.795 | 0.429 | 0.775 | 0.29 | 0.46 | 0.876 | 0.599 | 0.729 | 0.339 | 0.39 | 0.544 | 0.414 | 0.577 | 0.642
CCN(CCO)CCCOc1ccc2c(Nc3cc(CC(=O)Nc4cccc(F)c4)[nH]n3)ncnc2c1 [AZD2811] + O=C(c1cc(Cc2n[nH]c(=O)c3ccccc23)ccc1F)N1CCN(C(=O)C2CC2)CC1 [Olaparib] (first compound max 1 µM, 7x7, partner max 10 µM) | 0.299 | 0.398 | 0.434 | 0.332 | 0.271 | 0.375 | 0.545 | 0.178 | 0.58 | 0.184 | 0.192 | 0.835 | 0.0695 | 0.362 | 0.214 | 0.152 | 0.255 | 0.249 | 0.673 | 0.219
CN(CCO)CC[C@H](CSc1ccccc1)Nc1ccc(S(=O)(=O)NC(=O)c2ccc(N3CCC([C@@H](O)c4ccccc4-c4ccc(Cl)cc4)CC3)cc2)cc1S(=O)(=O)C(F)(F)F [AZD4320] + C1CN(CCC1(C(=O)N[C@@H](CCO)C2=CC=C(C=C2)Cl)N)C3=NC=NC4=C3C=CN4 [Capivasertib] (first compound max 1 µM, 7x7, partner max 3 µM) | 0.0697 | 0.221 | 0.95 | 0.418 | 0.104 | 0.989 | 0.743 | 0.337 | 0.354 | 0.576 | 0.45 | 1 | 0.0137 | 0.684 | 0.923 | 0.902 | 0.327 | 0.143 | 1 | 0.225
CN(CCO)CC[C@H](CSc1ccccc1)Nc1ccc(S(=O)(=O)NC(=O)c2ccc(N3CCC([C@@H](O)c4ccccc4-c4ccc(Cl)cc4)CC3)cc2)cc1S(=O)(=O)C(F)(F)F [AZD4320] + C=CCn1c(=O)c2cnc(Nc3ccc(N4CCN(C)CC4)cc3)nc2n1-c1cccc(C(C)(C)O)n1 [AZD1775] (first compound max 1 µM, partner max 1 µM) | 0.722 | 0.726 | 1 | 0.454 | 0.797 | 0.978 | 0.967 | 0.337 | 0.384 | 0.688 | 0.379 | 1 | 0.632 | 0.882 | 0.646 | 0.718 | 0.713 | 0.403 | 1 | 0.782
CN(CCO)CC[C@H](CSc1ccccc1)Nc1ccc(S(=O)(=O)NC(=O)c2ccc(N3CCC([C@@H](O)c4ccccc4-c4ccc(Cl)cc4)CC3)cc2)cc1S(=O)(=O)C(F)(F)F [AZD4320] + CCN(CCO)CCCOc1ccc2c(Nc3cc(CC(=O)Nc4cccc(F)c4)[nH]n3)ncnc2c1 [AZD2811] (first compound max 1 µM, 7x7, partner max 1 µM) | 0.505 | 0.589 | 1 | 0.177 | 0.342 | 0.903 | 0.773 | 0.159 | 0.446 | 0.776 | 0.363 | 1 | 0.0615 | 0.828 | 0.543 | 0.851 | 0.417 | 0.254 | 1 | 0.389
CN(CCO)CC[C@H](CSc1ccccc1)Nc1ccc(S(=O)(=O)NC(=O)c2ccc(N3CCC([C@@H](O)c4ccccc4-c4ccc(Cl)cc4)CC3)cc2)cc1S(=O)(=O)C(F)(F)F [AZD4320] + CN(C)CCCOc1ccc(-c2ccc3ncc4c(c3c2)n(C2CCOCC2)c(=O)n4C)cn1 [AZD0156] (first compound max 1 µM, 7x7, partner max 1 µM) | 0.148 | 0.178 | 0.973 | 0.258 | 0.208 | 0.957 | 0.497 | 0.209 | 0.175 | 0.634 | 0.275 | 1 | 0.01 | 0.546 | 0.619 | 0.327 | 0.229 | 0.0865 | 1 | 0.259
CN(CCO)CC[C@H](CSc1ccccc1)Nc1ccc(S(=O)(=O)NC(=O)c2ccc(N3CCC([C@@H](O)c4ccccc4-c4ccc(Cl)cc4)CC3)cc2)cc1S(=O)(=O)C(F)(F)F [AZD4320] + C[C@@H]1COCCN1C2=NC(=NC(=C2)C3(CC3)[S@](=N)(=O)C)C4=C5C=CNC5=NC=C4 [AZD6738] (first compound max 1 µM, 7x7, partner max 10 µM) | 0.25 | 0.877 | 0.99 | 0.383 | 0.904 | 0.979 | 0.886 | 0.517 | 0.777 | 0.791 | 0.63 | 1 | 0.543 | 0.897 | 0.603 | 0.734 | 0.787 | 0.532 | 1 | 0.724
CN(CCO)CC[C@H](CSc1ccccc1)Nc1ccc(S(=O)(=O)NC(=O)c2ccc(N3CCC([C@@H](O)c4ccccc4-c4ccc(Cl)cc4)CC3)cc2)cc1S(=O)(=O)C(F)(F)F [AZD4320] + C[C@@H](Nc1cc(F)cc(F)c1)c1cc(C(=O)N(C)C)cc2c(=O)cc(N3CCOCC3)oc12 [AZD8186] (first compound max 1 µM, 7x7, partner max 3 µM) | 0.294 | 0.338 | 0.967 | 0.507 | 0.434 | 0.999 | 0.927 | 0.581 | 0.401 | 0.678 | 0.615 | 1 | 0.236 | 0.838 | 0.64 | 0.546 | 0.623 | 0.402 | 1 | 0.382
CN(CCO)CC[C@H](CSc1ccccc1)Nc1ccc(S(=O)(=O)NC(=O)c2ccc(N3CCC([C@@H](O)c4ccccc4-c4ccc(Cl)cc4)CC3)cc2)cc1S(=O)(=O)C(F)(F)F [AZD4320] + Cn1cnc2c(F)c(Nc3ccc(Br)cc3Cl)c(C(=O)NOCCO)cc21 [Selumetinib] (first compound max 1 µM, 7x7, partner max 3 µM) | 0.546 | 0.628 | 0.988 | 0.544 | 0.472 | 0.875 | 0.8 | 0.347 | 0.671 | 0.772 | 0.646 | 1 | 0.198 | 0.721 | 0.71 | 0.617 | 0.575 | 0.318 | 1 | 0.516
COc1nnc2ccc(N3CCC(c4ccc(OCCN5CCN(C)C(=O)[C@H]5C)cc4)CC3)nn12 [AZD5153] + C=CCn1c(=O)c2cnc(Nc3ccc(N4CCN(C)CC4)cc3)nc2n1-c1cccc(C(C)(C)O)n1 [AZD1775] (first compound max 1 µM, partner max 1 µM) | 0.622 | 0.601 | 0.884 | 0.792 | 0.743 | 0.888 | 0.973 | 0.486 | 0.885 | 0.328 | 0.535 | 0.901 | 0.661 | 0.489 | 0.475 | 0.306 | 0.658 | 0.477 | 0.946 | 0.635
